We go through 14 molecules from patent US7829665B2 (priority 2005, dated 2010).

The subject of assay [1] is HCV sub-genomic replicon in GS4.3 cells (HuH-7 hepatoma cells). Briefly: Quantitation by ELISA of Neomycin phosphotransferase II (NPTII) in the HCV sub-genomic replicon, GS4.3. Type of assay: cell-based, hepatitis C virus. The note with it: Hepatitis C virus, Huh-7; GS4.3 cells, 72 h incubation, NPTII ELISA; read-out: Replicon EC50. As for the experimental part: The HCV sub-genomic replicon (1377/NS3-3′, accession No. AJ242652), stably maintained in HuH-7 hepatoma cells, was created by Lohmann et al. Science 285: 110-113 (1999). The replicon-containing cell culture, designated GS4.3, was obtained from Dr. Christoph Seeger of the Institute for Cancer Research, Fox Chase Cancer Center, Philadelphia, Pa.
GS4.3 cells were maintained at 37° C., 5% CO2, in DMEM (Gibco 11965-092) supplemented with L-glutamine 200 mM (100×) (Gibco25030-081), non-essential amino acids (NEAA) (Biowhittaker 13-114E), heat-inactivated (HI) Fetal Bovine Serum (FBS) (Hyclone SH3007.03) and 750 μg/ml geneticin (G418) (Gibco 10131-035). Cells were sub-divided 1:3 or 4 every 2-3 days.
24 h prior to the assay, GS4.3 cells were collected, counted, and plated in 96-well plates (Costar 3585) at 7500 cells/well in 100 μl standard maintenance medium (above) and incubated in the conditions above. To initiate the assay, culture medium was removed, cells were washed once with PBS (Gibco 10010-023) and 90 μl Assay Medium (DMEM, L-glutamine, NEAA, 10% HI FBS, no G418) was added. Inhibitors were made as a 10× stock in Assay Medium, (3-fold dilutions from 10 μM to 56 pM final concentration, final DMSO concentration 1%), 10 μl were added to duplicate wells, plates were rocked to mix, and incubated as above for 72 h.
An NPTII Elisa kit was obtained from AGDIA, Inc. (Compound direct ELISA test system for Neomycin Phosphotransferase II, PSP 73000/4800). Manufacturer's instructions were followed, with some modifications. 10×PEB-1 lysis buffer was made up to include 500 μM PMSF (Sigma P7626, 50 mM stock in isopropanol). After 72 h incubation, cells were washed once with PBS and 150 μl PEB-1 with PMSF was added per well. Plates were agitated vigorously for 15 minutes, room temperature, then frozen at −70° C. Plates were thawed, lysates were mixed thoroughly, and 100 μl were applied to an NPTII Elisa plate. A standard curve was made. Lysate from DMSO-treated control cells was pooled, serially diluted with PEB-1 with PMSF, and applied to duplicate wells of the ELISA plate, in a range of initial lysate amount of 150 ul-2.5 ul. In addition, 100 μl buffer alone was applied in duplicate as a blank. Plates were sealed and gently agitated at room temperature for 2 h. Following capture incubation, the plates were washed 5×300 μl with PBS-T (0.5% Tween-20, PBS-T was supplied in the ELISA kit). For detection, a 1× dilution of enzyme conjugate diluent MRS-2 (5×) was made in PBS-T, into which 1:100 dilutions of enzyme conjugates A and B were added, as per instructions. Plates were resealed, and incubated with agitation, covered, room temperature, for 2 h. The washing was then repeated and 100 μl of room temperature TMB substrate was added. After approximately 30 minutes incubation (room temperature, agitation, covered), the reaction was stopped with 50 μl 3M sulfuric acid. Plates were read at 450 nm on a Molecular Devices Versamax plate reader.
Inhibitor effect was expressed as a percentage of DMSO-treated control signal, and inhibition curves were calculated using a 4-parameter equation: y=A+((B−A)/(1+((C/x)^D))), where C is half-maximal activity or EC50.
On the technique in general: In an ELISA, binding on a coated surface is turned into a signal by an enzyme label.

Assay [2] addresses T1, full-length NS3/NS4A-2 (HCV NS3 protease) (Hepatitis C virus genotype 1a, UniProt P27958).
T1 construct: Recombinant E. coli or Baculovirus full-length NS3 was diluted to 3.33 μM with assay buffer; made in house; host or cells: E. coli or baculovirus (BV) expression system
Briefly: NS3-NS4 protease assay / NS3 inhibition assay (RETS1 substrate, fluorescence kinetic read). Type of assay: biochemical. A digest of the protocol:
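Full-length NS3 from E. coli (2 nM in assay) or baculovirus (3 nM) was precomplexed with excess NS4A-2 peptide, then preincubated 10 min at room temperature with serially diluted compounds starting at 50 microM. Reaction was started with RETS1 substrate at 8 μM before addition and read kinetically for 30 min (ex 335/em 495 nm). Four-parameter IC50s were converted to Ki by Cheng-Prusoff using Km 2.03 μM (E. coli) or 1.74 μM (BV).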

Setting [3] is: recombinant E. coli or Baculovirus full-length NS3 with NS4A-2, read-out: NS3-NS4 IC50.

Where two headings read alike, the source gives them in different places. Where only a bound is given, the exact number is not on record here.

T1 sequence (P27958 1027-1657): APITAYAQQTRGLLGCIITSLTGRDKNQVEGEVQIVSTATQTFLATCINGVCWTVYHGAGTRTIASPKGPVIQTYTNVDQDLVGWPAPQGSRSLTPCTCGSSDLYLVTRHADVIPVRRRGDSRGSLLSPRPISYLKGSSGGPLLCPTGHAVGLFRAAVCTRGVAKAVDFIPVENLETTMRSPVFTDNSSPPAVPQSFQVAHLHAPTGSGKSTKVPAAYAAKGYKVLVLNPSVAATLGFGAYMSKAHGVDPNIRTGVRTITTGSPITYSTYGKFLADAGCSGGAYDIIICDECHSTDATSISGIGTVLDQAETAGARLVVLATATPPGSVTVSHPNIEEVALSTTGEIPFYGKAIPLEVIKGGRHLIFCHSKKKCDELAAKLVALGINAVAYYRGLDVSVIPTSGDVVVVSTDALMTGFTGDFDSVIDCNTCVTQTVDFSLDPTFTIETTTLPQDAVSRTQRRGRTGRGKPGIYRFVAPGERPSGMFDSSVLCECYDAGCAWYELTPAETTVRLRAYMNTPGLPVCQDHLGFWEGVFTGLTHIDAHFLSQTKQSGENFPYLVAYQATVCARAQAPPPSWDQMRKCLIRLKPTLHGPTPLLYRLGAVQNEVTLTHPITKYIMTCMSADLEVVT

On to `O=C(CCC(F)(F)F)N[C@H]1CCCCC/C=C\[C@@H]2C[C@@]2(C(=O)NS(=O)(=O)C2CC2)NC(=O)[C@@H]2C[C@@H](OC(=O)N3Cc4cccc(Cl)c4C3)CN2C1=O` [Compound 143], for which the EC50 in assay [1] is under 0.1 µM. Besides, the IC50 in assay [2] (setting [3]) is under 0.1 µM.

On to `CC(C)(C)OC(=O)N[C@H]1CCCCC/C=C\[C@@H]2C[C@@]2(C(=O)O)NC(=O)[C@@H]2C[C@@H](OC(=O)N3Cc4c(Cl)ccc(Cl)c4C3)CN2C1=O` [Compound 144], for which the 50% effective concentration (EC50) in assay [1] was under 10 µM. Besides, the concentration for half-maximal inhibition (IC50) in assay [2] (setting [3]) was under 0.1 µM.

As for `CC(C)(C)OC(=O)N[C@H]1CCCCC/C=C\[C@@H]2C[C@@]2(C(=O)NS(=O)(=O)C2CC2)NC(=O)[C@@H]2C[C@@H](OC(=O)N3Cc4c(Cl)ccc(Cl)c4C3)CN2C1=O` [Compound 145], the concentration for a half-maximal effect (EC50) in assay [1] is under 0.1 µM. Besides, in assay [2] (setting [3]), the half-maximal inhibitory concentration (IC50) is under 0.1 µM.

As for `O=C(N[C@H]1CCCCC/C=C\[C@@H]2C[C@@]2(C(=O)O)NC(=O)[C@@H]2C[C@@H](OC(=O)N3Cc4ccncc4C3)CN2C1=O)OC1CCCC1` [Compound 146], the EC50 in assay [1] is over 10 µM. Also, the half-maximal inhibitory concentration (IC50) in assay [2] (setting [3]) was under 0.1 µM.

For the molecule `C[C@H](NC(=O)O[C@@H]1C[C@H]2C(=O)N[C@]3(C(=O)NS(=O)(=O)C4CC4)C[C@H]3/C=C\CCCCC[C@H](NC(=O)OC(C)(C)C)C(=O)N2C1)c1ccc(F)cn1` [Compound 149], in assay [1], the EC50 was over 10 µM. In addition, the IC50 in assay [2] (setting [3]) is under 0.1 µM.

As to `O=C(N[C@H]1CCCCC/C=C\[C@@H]2C[C@@]2(C(=O)NS(=O)(=O)C2CC2)NC(=O)[C@@H]2C[C@@H](OC(=O)N3Cc4ccncc4C3)CN2C1=O)OC1CCCC1` [Compound 155], the EC50 in assay [1] is under 1 µM. Further, the 50% inhibitory concentration (IC50) in assay [2] (setting [3]) is under 0.1 µM.

Turning to `N[C@H]1CCCCC/C=C\[C@@H]2C[C@@]2(C(=O)NS(=O)(=O)C2CC2)NC(=O)[C@@H]2C[C@@H](OC(=O)N3Cc4c(Cl)ccc(Cl)c4C3)CN2C1=O` [Compound 156], the EC50 in assay [1] was under 1 µM. The molecule also displayed a concentration for half-maximal inhibition (IC50) in assay [2] of under 0.1 µM.

As to `Cc1ccccc1S(=O)(=O)NC(=O)[C@@]12C[C@H]1/C=C\CCCCC[C@H](NC(=O)OC(C)(C)C)C(=O)N1C[C@H](OC(=O)N3Cc4cccc(F)c4C3)C[C@H]1C(=O)N2` [Compound 157], in assay [1], the 50% effective concentration (EC50) is under 0.1 µM. The concentration for half-maximal inhibition (IC50) in assay [2] (setting [3]) is under 0.1 µM.

In the case of `CC(C)(C)OC(=O)N[C@H]1CCCCC/C=C\[C@@H]2C[C@@]2(C(=O)NS(=O)(=O)C2CC2)NC(=O)[C@@H]2C[C@@H](OC(=O)N3Cc4cccc(N5CCOCC5)c4C3)CN2C1=O` [Compound 158], the half-maximal effective concentration (EC50) in assay [1] was under 0.1 µM. For the same molecule, in assay [2] (setting [3]), the concentration for half-maximal inhibition (IC50) was under 0.1 µM.

`Cc1ccccc1S(=O)(=O)NC(=O)[C@@]12C[C@H]1/C=C\CCCCC[C@H](N)C(=O)N1C[C@H](OC(=O)N3Cc4cccc(F)c4C3)C[C@H]1C(=O)N2` [Compound 159]: the EC50 in assay [1] was under 1 µM. In assay [2], this molecule yielded an IC50 of under 0.1 µM.

On to `CC(C)(C)OC(=O)N[C@H]1CCCCC/C=C\[C@@H]2C[C@@]2(C(=O)NS(=O)(=O)C2CC2)NC(=O)[C@@H]2C[C@@H](OC(=O)N3Cc4cccc(Br)c4C3)CN2C1=O` [Compound 160], for which the concentration for a half-maximal effect (EC50) in assay [1] is under 0.1 µM. For the same molecule, the IC50 in assay [2] (setting [3]) is under 0.1 µM.

With `CC(C)(C)OC(=O)N[C@H]1CCCCC/C=C\[C@@H]2C[C@@]2(C(=O)NS(=O)(=O)C2(Cc3ccccc3)CC2)NC(=O)[C@@H]2C[C@@H](OC(=O)N3Cc4cccc(Cl)c4C3)CN2C1=O` [Compound 161], in assay [1], the concentration for a half-maximal effect (EC50) is under 0.1 µM. Also, the half-maximal inhibitory concentration (IC50) in assay [2] (setting [3]) was under 0.1 µM.

`CC(C)(C)OC(=O)N[C@H]1CCCCC/C=C\[C@@H]2C[C@@]2(C(=O)NS(=O)(=O)c2cc(Cl)sc2Cl)NC(=O)[C@@H]2C[C@@H](OC(=O)N3Cc4cccc(F)c4C3)CN2C1=O` [Compound 162]: the EC50 in assay [1] is under 0.1 µM. Besides, the IC50 in assay [2] (setting [3]) is under 0.1 µM.

With `N[C@H]1CCCCC/C=C\[C@@H]2C[C@@]2(C(=O)NS(=O)(=O)C2(Cc3ccccc3)CC2)NC(=O)[C@@H]2C[C@@H](OC(=O)N3Cc4cccc(Cl)c4C3)CN2C1=O` [Compound 163], the concentration giving a half-maximal response (EC50) in assay [1] is under 10 µM. The same molecule returned an IC50 in assay [2] of under 0.1 µM.

As usually defined, the EC50 is the concentration that produces a half-maximal response. As usually defined, the IC50 is the midpoint of a concentration-inhibition curve.
